Where “and” joins values, the source holds several entries; their conditions need not be identical. Equal entries are not always repeated. Where two headings read alike, the source gives them in different places.
Assays:
Type in all cases: cell-based, Trypanosoma brucei brucei
tbaqp2/tbaqp3 null cells = assay: microbe, parasite or virus in culture
[1] = system: tbaqp2/tbaqp3 null cells expressing TbAQP2WT; assay: microbe, parasite or virus in culture
[2] = system: tbaqp2/tbaqp3 null cells expressing TbAQP2^S131P/S263A
[3] = system: tbaqp2/tbaqp3 null cells expressing TbAQP2^L258Y
[4] = system: tbaqp2/tbaqp3 null cells expressing TbAQP2^I110W
[5] = system: tbaqp2/tbaqp3 null cells expressing TbAQP2^L264R
[6] = system: tbaqp2/tbaqp3 null cells expressing TbAQP2^I190T
[7] = system: tbaqp2/tbaqp3 null cells expressing TbAQP2^W192G
[8] = system: tbaqp2/tbaqp3 null cells expressing TbAQP2^I190T/W192G
[9] = system: tbaqp2/tbaqp3 null cells expressing TbAQP2 L84W; assay: microbe, parasite or virus in culture
[10] = system: tbaqp2/tbaqp3 null cells expressing TbAQP2 L118W; assay: microbe, parasite or virus in culture
[11] = system: tbaqp2/tbaqp3 null cells expressing TbAQP2 L218W; assay: microbe, parasite or virus in culture
[12] = system: tbaqp2/tbaqp3 null cells expressing TbAQP2 L84M; assay: microbe, parasite or virus in culture
[13] = system: tbaqp2/tbaqp3 null cells expressing TbAQP2 L118M; assay: microbe, parasite or virus in culture
[14] = system: tbaqp2/tbaqp3 null cells expressing TbAQP2 L218M; assay: microbe, parasite or virus in culture
[15] = system: tbaqp2/tbaqp3 null cells expressing TbAQP3
[16] = system: tbaqp2/tbaqp3 null cells expressing TbAQP3^W102I/R256L
[17] = system: tbaqp2/tbaqp3 null cells expressing TbAQP3^W102I/R256L/Y250L

SMILES: Cl.Cl.NCCS[As](SCCN)c1ccc(Nc2nc(N)nc(N)n2)cc1 [Cymelarsan]
- EC50 (% of aqp2/aqp3 null), MEAN (tbaqp2/tbaqp3 null cells): 100.00 % of aqp2/aqp3 null
- EC50 (% of aqp2/aqp3 null), single repeats (tbaqp2/tbaqp3 null cells): 100.09 % of aqp2/aqp3 null and 107.11 % of aqp2/aqp3 null and 92.80 % of aqp2/aqp3 null and 105.96 % of aqp2/aqp3 null and 97.29 % of aqp2/aqp3 null and 96.75 % of aqp2/aqp3 null and 92.36 % of aqp2/aqp3 null and 100.54 % of aqp2/aqp3 null
- EC50, MEAN (% KO) (tbaqp2/tbaqp3 null cells): 100.00 % KO
- EC50, percent of AQP2/3 null EC50 (tbaqp2/tbaqp3 null cells): 100.00%
- EC50 as percent of AQP2/3 null EC50, MEAN (tbaqp2/tbaqp3 null cells): 100.00%
- EC50 as percent of AQP2/3 null EC50, single repeats (tbaqp2/tbaqp3 null cells): 100.0%
- EC50 (tbaqp2/tbaqp3 null cells; read-out: EC50, MEAN): 19.9 nM
- EC50 (% of aqp2/aqp3 null), MEAN [1]: 14.85 % of aqp2/aqp3 null
- EC50, MEAN (% KO) [1]: 21.40 % KO
- EC50, percent of AQP2/3 null EC50 [1]: 11.82% and 12.84% and 17.72% and 13.38%
- EC50 as percent of AQP2/3 null EC50, MEAN [1]: 12.527% and 12.55%
- EC50, percent of AQP2/3 null EC50 [2]: 58.29%
- EC50, percent of AQP2/3 null EC50 [3]: 33.16%
- EC50, percent of AQP2/3 null EC50 [4]: 106.64%
- EC50, percent of AQP2/3 null EC50 [5]: 99.62%
- EC50 as percent of AQP2/3 null EC50, MEAN [6]: 64.67%
- EC50 as percent of AQP2/3 null EC50, MEAN [7]: 42.01%
- EC50 as percent of AQP2/3 null EC50, single repeats [7]: 38.89% and 33.6754% and 48.5349% and 30.3438% and 47.7536% and 38.5508% and 45.4365% and 52.8716%
- EC50 as percent of AQP2/3 null EC50, MEAN [8]: 95.01%
- EC50 as percent of AQP2/3 null EC50, single repeats [8]: 84.5691% and 96.0784% and 104.69% and 94.6857%
- EC50 (% of aqp2/aqp3 null), MEAN [9]: 100.47 % of aqp2/aqp3 null
- EC50 (% of aqp2/aqp3 null), single repeats [9]: 103.60 % of aqp2/aqp3 null and 103.34 % of aqp2/aqp3 null and 94.46 % of aqp2/aqp3 null
- EC50 ([9]; read-out: EC50, MEAN): 20 nM
- EC50 ([9]; read-out: EC50, single repeats): 20.6 nM (2×) and 18.8 nM
- EC50 (% of aqp2/aqp3 null), MEAN [10]: 92.14 % of aqp2/aqp3 null
- EC50 (% of aqp2/aqp3 null), single repeats [10]: 88.70 % of aqp2/aqp3 null and 124.82 % of aqp2/aqp3 null and 62.91 % of aqp2/aqp3 null
- EC50 ([10]; read-out: EC50, MEAN): 18.4 nM
- EC50 ([10]; read-out: EC50, single repeats): 17.7 nM and 24.9 nM and 12.5 nM
- EC50 (% of aqp2/aqp3 null), MEAN [11]: 94.01 % of aqp2/aqp3 null
- EC50 (% of aqp2/aqp3 null), single repeats [11]: 100.13 % of aqp2/aqp3 null and 113.78 % of aqp2/aqp3 null and 68.13 % of aqp2/aqp3 null
- EC50 ([11]; read-out: EC50, MEAN): 18.7 nM
- EC50 ([11]; read-out: EC50, single repeats): 20 nM and 22.7 nM and 13.6 nM
- EC50, MEAN (% KO) [12]: 62.94 % KO
- EC50 ([12]; read-out: EC50, MEAN): 13.9 nM
- EC50 ([12]; read-out: EC50, single repeats): 14.7 nM and 14.5 nM and 12.4 nM and 13.7 nM and 10.5 nM and 17.1 nM
- EC50 (% of aqp2/aqp3 null), single repeats [13]: 106.00 % of aqp2/aqp3 null and 109.38 % of aqp2/aqp3 null and 101.17 % of aqp2/aqp3 null and 149.03 % of aqp2/aqp3 null and 147.52 % of aqp2/aqp3 null
- EC50, MEAN (% KO) [13]: 122.62 % KO
- EC50 ([13]; read-out: EC50, MEAN): 34.3 nM
- EC50 ([13]; read-out: EC50, single repeats): 34.5 nM and 35.6 nM and 32.9 nM and 24.6 nM and 24.4 nM
- EC50, MEAN (% KO) [14]: 58.15 % KO
- EC50 ([14]; read-out: EC50, MEAN): 11.2 nM
- EC50 ([14]; read-out: EC50, single repeats): 11.4 nM and 11.3 nM and 10.9 nM and 12.3 nM and 12.4 nM and 15.8 nM
- EC50, percent of AQP2/3 null EC50 [15]: 114 ± 5%
- EC50, percent of AQP2/3 null EC50 [16]: 105 ± 8%
- EC50, percent of AQP2/3 null EC50 [17]: 159 ± 8%

From paper PMC7473772 (eLife, 2020)
